Results on twelve compounds are retold here after patent US11434226B2, “Salt and polymorph of benzopyrimidinone compound and pharmaceutical composition and use thereof” (SHANGHAI INSTITUTE OF MATERIA MEDICA, CHINESE ACADEMY OF …, priority 2017, dated 2022).

Molecules are shown by their SMILES. “Also recorded” adds a separate entry of the source. Like-named read-outs stand apart in the source and are kept apart here.

Series [1] is described as follows: Hygroscopicity of solid forms of hydrochlorate of compound Z. It is filed as physicochemical. An excerpt:
The properties of crystalline form A prepared in Examples 11 or 12, crystalline form B prepared in Example 14 and amorphous substance prepared in Example 15 were compared, the results were shown in the following table 6.

Series [2] is described as follows: Comparison of solubility of compound Z and its salts. It is filed as physicochemical. An excerpt:
An appropriate amount of the sample was weighed in a glass test tube and a selected solvent was gradually added therein to observe the clarification.

Series [3] in a line: Comparison of compound appearance and characters (odor). It is filed as physicochemical. An excerpt:
The appearance and characters of the basic compound Z prepared in Example 16 and different salts of compound Z prepared in Examples 1-2, 5-6, 9 were observed, the results are shown in the table below: […]

Series [4] can be described thus: Chemical stability by stress testing (high temperature, high humidity, illumination). It is filed as physicochemical. The following applies: for stability, in words: high temperature, light and high humidity conditions. An excerpt:
The chemical stability of the basic compound Z prepared in Example 16 and the salts of compound Z prepared in Examples 5, 9 and 10 was compared through a stress testing, the results were shown in the table below: […]

The nature of series [5]: In vivo pharmacokinetic experiment in rats. The following applies: by gavage. How it is done:
The in vivo pharmacokinetic experiment in rats were carried out for the basic compound Z prepared in Example 16, the hydrochlorate of compound Z prepared in Example 9, the succinate of compound Z prepared in Example 2, the fumarate of compound Z prepared in Example 3 (administered by gavage, dose 3 mg/kg), the results were shown in FIG. 8 of the specification.

The mark [6] stands for this setting: selected solvent of pH 2 (composition not named), simulated gastric fluid, thermodynamic from solid, pH = 2, read-out: Solubility.
[7] abbreviates: selected solvent of pH 4.5 (composition not named), aqueous buffer, thermodynamic from solid, pH = 4.5, read-out: Solubility.
The mark [8] stands for this setting: selected solvent of pH 6.8 (composition not named), aqueous buffer, thermodynamic from solid, pH = 6.8, read-out: Solubility.
[9] abbreviates: thermodynamic from solid, water (deionized), read-out: Solubility.
The mark [10] stands for this setting: High humidity (25° C., 92.5% RH), 5 days.
[11] abbreviates: High humidity (25° C., 92.5% RH), 10 days.
The mark [12] stands for this setting: high temperature (60° C.), 5 days.
[13] abbreviates: high temperature (60° C.), 10 days.
The mark [14] stands for this setting: illumination (4500 lx ± 500 lx), 5 days.
Where [15] appears, read: illumination (4500 lx ± 500 lx), 10 days.

Consider `CCCOc1ccc(NC(=O)CN2CCN(C)CC2)cc1-c1nc(CC)c(CC)c(=O)[nH]1.Cl` [Amorphous, 5,6-diethyl-2-[2-n-propoxy-5-(2-(4-methylpiperazin-1-yl)acetamido)phenyl]pyrimidin-4(3H)-one Hydrochloride (Amorphous)], for which the “hygroscopicity, water absorption” value in series [1] (65% RH) was 65% RH, water absorption 16.53%; in series [1] (80% RH), 80% RH, water absorption 6.74%.
For `CC(=O)O.CCCOc1ccc(NC(=O)CN2CCN(C)CC2)cc1-c1nc(CC)c(CC)c(=O)[nH]1` [acetate of compound Z, 5,6-diethyl-2-[2-n-propoxy-5-(2-(4-methylpiperazin-1-yl)acetamido)phenyl]pyrimidin-4(3H)-one Acetate], the solubility is 35.8 mg/mL in series [2] (setting [6]), more than 102 mg/mL in series [2] (setting [7]), 22.6 mg/mL in series [2] (setting [8]) and 14 mg/mL in series [2] (setting [9]).
On to `CCCOc1ccc(NC(=O)CN2CCN(C)CC2)cc1-c1nc(CC)c(CC)c(=O)[nH]1` [compound Z, 5,6-diethyl-2-[2-n-propoxy-5-(2-(4-methylpiperazin-1-yl)acetamido)phenyl]pyrimidin-4(3H)-one], for which the “solubility, in words” value in series [2] was “poor solubility in water; also recorded: significantly lower”. For the same compound, the solubility in series [2] (setting [6]) was 5.3 mg/mL; in series [2] (setting [7]), 38.1 mg/mL; in series [2] (setting [8]) it was 1.7 mg/mL; in series [2] (setting [9]), 1.5 mg/mL. Besides, the odor result in series [3] is listed as “Pungent odor”. For the same compound, the characters entry in series [4] (0 days) was “White”; in series [4] (setting [10]), “White”; in series [4] (setting [11]), “White”; in series [4] (setting [12]), “White”; in series [4] (setting [13]), “White”; in series [4] (setting [14]), “Yellowish”. Further, the characters result in series [4] (setting [15]) is on record as “Yellowish”. The purity in series [4] (0 days) is on record as 99.6%; in series [4] (setting [10]) it was 99.64%; in series [4] (setting [11]), 99.53%; in series [4] (setting [12]), 99.69%; in series [4] (setting [13]), 99.36%; in series [4] (setting [14]) it was 99.37%. Further, in series [4], the “stability, in words” value is “relatively poor”.
Take `CCCOc1ccc(NC(=O)CN2CCN(C)CC2)cc1-c1nc(CC)c(CC)c(=O)[nH]1.Cl` [form B, 5,6-diethyl-2-[2-n-propoxy-5-(2-(4-methylpiperazin-1-yl)acetamido)phenyl]pyrimidin-4(3H)-one Hydrochlorate (Form B)]: the “hygroscopicity, water absorption” value in series [1] (65% RH) is on record as 65% RH, water absorption 3.58%; in series [1] (80% RH), 80% RH, water absorption 11.3%.
`CCCOc1ccc(NC(=O)CN2CCN(C)CC2)cc1-c1nc(CC)c(CC)c(=O)[nH]1.O=C(O)/C=C/C(=O)O` [fumarate of compound Z, 5,6-diethyl-2-[2-n-propoxy-5-(2-(4-methylpiperazin-1-yl)acetamido)phenyl]pyrimidin-4(3H)-one Fumarate]: the solubility was more than 24.2 mg/mL in series [2] (setting [6]), more than 20.2 mg/mL in series [2] (setting [7]), more than 27 mg/mL in series [2] (setting [8]) and more than 26.6 mg/mL in series [2] (setting [9]).
Turning to `CCCOc1ccc(NC(=O)CN2CCN(C)CC2)cc1-c1nc(CC)c(CC)c(=O)[nH]1.Cl` [hydrochlorate of compound Z, 5,6-diethyl-2-[2-n-propoxy-5-(2-(4-methylpiperazin-1-yl)acetamido)phenyl]pyrimidine-4(3H)-one Hydrochlorate], the “solubility, in words” value in series [2] is listed as “good solubility”. Further, the solubility in series [2] (setting [6]) was more than 22.8 mg/mL; in series [2] (setting [7]), more than 23.6 mg/mL; in series [2] (setting [8]) it was more than 26.6 mg/mL; in series [2] (setting [9]) it was more than 25 mg/mL. Moreover, in series [3], the odor entry was “No bad smell”. Further, the characters result in series [4] (0 days), in series [4] (setting [10]), in series [4] (setting [11]), in series [4] (setting [12]), in series [4] (setting [13]) and in series [4] (setting [14]) was “White” in each case. Further, the characters entry in series [4] (setting [15]) is given as “White”. In addition, the purity in series [4] (0 days) was 99.77%; in series [4] (setting [10]) it was 99.73%; in series [4] (setting [11]) it was 99.77%; in series [4] (setting [12]), 99.65%; in series [4] (setting [13]), 99.71%; in series [4] (setting [14]), 99.79%. The compound further yielded a purity in series [4] (setting [15]) of 99.72%. The “stability, in words” value is given as “high stability” in series [4] and “stable” in series [4] (listed as hydrochlorate). Besides, the “oral bioavailability, in words” value in series [5] (3 mg/kg) was “high oral bioavailability”. Further, the “in vivo pharmacokinetic properties (plasma concentration-time curve, FIG. 8), in words” value in series [5] (dose 3 mg/kg, compared with compound Z) is “significantly better”.
In the case of `CCCOc1ccc(NC(=O)CN2CCN(C)CC2)cc1-c1nc(CC)c(CC)c(=O)[nH]1.O=C(O)/C=C\C(=O)O` [maleate of compound Z, 5,6-diethyl-2-[2-n-propoxy-5-(2-(4-methylpiperazin-1-yl)acetamido)phenyl]pyrimidine-4(3H)-one Maleate], the solubility was 6.1 mg/mL in series [2] (setting [6]), 21.4 mg/mL in series [2] (setting [7]), 46.4 mg/mL in series [2] (setting [8]) and 5.8 mg/mL in series [2] (setting [9]). Besides, in series [3], the odor entry is reported as “No bad smell”.
Take `CCCOc1ccc(NC(=O)CN2CCN(C)CC2)cc1-c1nc(CC)c(CC)c(=O)[nH]1.CS(=O)(=O)O` [methanesulfonate of compound Z, 5,6-diethyl-2-[2-n-propoxy-5-(2-(4-methylpiperazin-1-yl)acetamido)phenyl]pyrimidin-4(3H)-one Methanesulfonate]: the solubility in series [2] (setting [6]) is more than 22.4 mg/mL; in series [2] (setting [7]), more than 25.4 mg/mL; in series [2] (setting [8]), more than 23.2 mg/mL; in series [2] (setting [9]) it was more than 23.8 mg/mL. Also, the odor entry in series [3] is listed as “No bad smell”. Also, the characters entry is “White” in series [4] (0 days); “Yellow” in series [4] (setting [10]); “Yellow” in series [4] (setting [11]); “White” in series [4] (setting [12]); “White” in series [4] (setting [13]); “White” in series [4] (setting [14]). Moreover, the characters result in series [4] (setting [15]) is given as “White”. The purity in series [4] (0 days) was found to be 99.66%; in series [4] (setting [10]), 99.54%; in series [4] (setting [11]) it was 99.55%; in series [4] (setting [12]), 99.54%; in series [4] (setting [13]), 99.49%; in series [4] (setting [14]), 99.72%. Moreover, in series [4] (setting [15]), the purity stood at 99.46%.
On to `CCCOc1ccc(NC(=O)CN2CCN(C)CC2)cc1-c1nc(CC)c(CC)c(=O)[nH]1.O=C(O)[C@@H](O)[C@H](O)[C@H](O)[C@@H](O)C(=O)O` [mucate of compound Z, 5,6-diethyl-2-[2-n-propoxy-5-(2-(4-methylpiperazin-1-yl)acetamido)phenyl]pyrimidin-4(3H)-one Mucate], for which the solubility in series [2] (pH = 2) worked out at 36.3 mg/mL; in series [2] (pH = 4.5), 62.7 mg/mL; in series [2] (pH = 6.8), 39.0 mg/mL; in series [2] (water (deionized)), 10.6 mg/mL.
Consider `CCCOc1ccc(NC(=O)CN2CCN(C)CC2)cc1-c1nc(CC)c(CC)c(=O)[nH]1.O=C(O)CCC(=O)O` [succinate of compound Z, 5,6-diethyl-2-[2-n-propoxy-5-(2-(4-methylpiperazin-1-yl)acetamido)phenyl]pyrimidin-4(3H)-one Succinate], for which the solubility was more than 20.8 mg/mL in series [2] (setting [6]), more than 22 mg/mL in series [2] (setting [7]), more than 20.8 mg/mL in series [2] (setting [8]) and more than 24.8 mg/mL in series [2] (setting [9]). For the same compound, the odor result in series [3] is “No bad smell”.
With `CCCOc1ccc(NC(=O)CN2CCN(C)CC2)cc1-c1nc(CC)c(CC)c(=O)[nH]1.O=S(=O)(O)O` [sulfate of compound Z, 5,6-diethyl-2-[2-n-propoxy-5-(2-(4-methylpiperazin-1-yl)acetamido)phenyl]pyrimidin-4(3H)-one Sulfate], the solubility in series [2] (setting [6]) is more than 20.2 mg/mL; in series [2] (setting [7]) it was more than 25.6 mg/mL; in series [2] (setting [8]), more than 24.4 mg/mL; in series [2] (setting [9]), more than 20.6 mg/mL. Further, the characters entry in series [4] (0 days) is listed as “Yellow”; in series [4] (setting [10]), “Yellow powder”; in series [4] (setting [11]), “Yellow powder”; in series [4] (setting [12]), “Yellow”; in series [4] (setting [13]), “Yellow”; in series [4] (setting [14]) it was “Yellow”. The characters entry in series [4] (setting [15]) is listed as “Gray-yellow”. The purity amounted to 99.63% in series [4] (0 days); 99.64% in series [4] (setting [10]); 99.62% in series [4] (setting [11]); 99.59% in series [4] (setting [12]); 99.64% in series [4] (setting [13]); 97.43% in series [4] (setting [14]). This compound gave a purity in series [4] (setting [15]) of 96.99%.
As to `CCCOc1ccc(NC(=O)CN2CCN(C)CC2)cc1-c1nc(CC)c(CC)c(=O)[nH]1.O=C(O)C(O)C(O)C(=O)O` [tartrate of compound Z, 5,6-diethyl-2-[2-n-propoxy-5-(2-(4-methylpiperazin-1-yl)acetamido)phenyl]pyrimidin-4(3H)-one Tartrate], the solubility was more than 219 mg/mL in series [2] (setting [6]), more than 155 mg/mL in series [2] (setting [7]), more than 130 mg/mL in series [2] (setting [8]) and more than 153 mg/mL in series [2] (setting [9]). Also, the odor entry in series [3] is listed as “No bad smell”.

The solubility is the concentration that dissolves in the medium under given conditions.
